For series [1] the following is noted: cited from earlier work.
A short description of series [2]: Case study Example 2: person with moderately functioning autism. The format is in vivo, human. The settings on record: autistic person; for alleviation of behavioral symptoms: complete formulation. An excerpt:
Person diagnosed with moderately functioning autism. Subject's behaviors were noteworthy for acute social withdrawal, pronounced language deficit, obsessive compulsive behaviors, acute anxiety attacks, aggression, hyperactivity, loss of concentration, fear and panic disorder, hyperactivity, depression, sleep deficit and acoustic hypersensitivity. Subject experienced loss of appetite and was underweight, although growth and sexual development was not stunted. […]

For series [3] the following is noted: oral; cited from earlier work.
For series [4], the system named is bacteria, protozoa or viruses. The conditions noted are these: cited from earlier work.
In series [5] the test system is yeasts and yeast-like fungi. The conditions noted are these: cited from earlier work.
For series [6] the following is noted: oral supplementation, patient groups; cited from earlier work.
Another series has as its system NMDA glycine site. The conditions noted are these: in vivo; cited from earlier work.
Series [7] is described as follows: Case study Example 3: person with schizophrenia. The settings on record: for relief of symptoms (anxiety, obsessive compulsive behavior, psychosis): schizophrenic, formulation given while remaining on clozapine and lithium. The source says: Person diagnosed with schizophrenia. Hospitalized several times suffering from acute psychotic attack with hallucinations and paranoia. Treated with many typical and atypical antipsychotic drugs. […] Over the years, several diagnoses were given, including bipolar disorder, obsessive-compulsive disorder, affective disorder, and combinations thereof. Medications have included lithium, olanzapine, prozac, and several sleep medications. […] Patient went through years of treatment programs and weekly psychiatric sessions. Although they managed (with extreme difficulty) to obtain BA and MA degrees, paranoia and anxiety prevented them from working. Recent history. Patient has been on an atypical antipsychotic (clozapine) and high doses of lithium carbonate for the past 2 years. […] Patient started on Metabolic Enhancement Therapy with the disclosed formulation, while remaining on clozapine and lithium.

Series [8] is described as follows: Case study Example 4: person with acute anxiety disorder and depression. The settings on record: 2 years of treatment.
The conditions of series [9]: in vivo; cited from earlier work.

As for `C[C@@H]1[C@H](O)[C@@H](C)/C=C/C=C/CC/C=C/C=C/C=C/C=C/C(O[C@H]2O[C@H](C)[C@@H](O)[C@H](N)[C@@H]2O)CC2O[C@](O)(CC(O)C(O)CCC(O)CC(O)CC(O)CC(=O)O[C@H]1C)CC(O)C2C(=O)O` (some centres unmarked) [Nystatin], the “tolerability / toxicity in words” value in [1] (in vivo) is “generally well tolerated by all age groups”. The “control of chronic intestinal yeast infections” value in series [2] was “effectively controlled yeast infections”. The gastrointestinal absorption entry in [3] is “insignificant”. For the same compound, in series [4], the “activity against bacteria, protozoa or viruses” value is reported as “no activity”. Besides, the antifungal activity entry in series [5] is “both fungistatic and fungicidal”.
As for vitamin E, in series [1] (in vivo), the “dose without reported toxicity” value is reported as “up to 800 mg/day”.
As for vitamin B12, the “effect on depression in clinical trials” value in series [6] is given as “responsive to B12 supplementation”.
With amoxtatine, in series [2], the “alleviation of behavioral symptoms” value is “proved totally ineffective”.
`C[S+](CC[C@H](N)C(=O)O)C[C@H]1O[C@@H](n2cnc3c(N)ncnc32)[C@H](O)[C@@H]1O` (some centres unmarked) [S-adenosyl methionine (SAMe), S-adenosyl methionine]: the “effect on depression in clinical trials” value in [6] is given as “effective treatment for depression”.
`N[C@@H](Cc1c[nH]c2ccc(O)cc12)C(=O)O` [5-hydroxytryptophan]: in series [6], the “effect on depression in clinical trials” value is “only minor signs of efficacy”.
In the case of `NCC(=O)O` [glycine], the “effect on depression in clinical trials” value in series [6] was “useful in the treatment of certain forms of bipolar depression”.
Take `N[C@@H]1CONC1=O` [D-cycloserine]: the “extinction of conditioned fear” value in the series with NMDA glycine site is reported as “augment the extinction of conditioned fear”.
As to secretin, the “alleviation of behavioral symptoms” value in [2] was “proved totally ineffective”.
On to `Cc1cc2c(s1)Nc1ccccc1N=C2N1CCN(C)CC1` [olanzapine], for which the “side effects induced by medication” value in series [7] (in vivo) was “induce tremors, rigidity, weight gain and diabetes”.
Take `CNCCC(Oc1ccc(C(F)(F)F)cc1)c1ccccc1` (centres unmarked) [Prozac]: the side effects entry in series [8] is “negative side effects”. In [7] (in vivo), the “side effects induced by medication” value was “induce tremors, rigidity, weight gain and diabetes”. For the same compound, the “relief of symptoms (anxiety, obsessive compulsive behavior, psychosis)” value in series [7] is recorded as “None provided relief of symptoms”.
On to `O=C([O-])c1cc(=O)[nH]c(=O)[nH]1.[Li+]` [lithium orotate], for which the “increase of delivery of lithium to brain by complexing with orotate” value in series [9] is “over 100 fold”.
For `CC(=O)O[C@H](CC(=O)[O-])C[N+](C)(C)C` [acetyl-L-carnitine], in series [6], the “effect on depression in clinical trials” value is on record as “effective in relieving depression”.
Regarding `Cc1ncc(C[n+]2csc(CCO)c2C)c(N)n1` [Vitamin B1, Thiamine], the “tolerability / toxicity in words” value in [1] (in vivo) was “toxicities are very rare”.
`Cc1ncc(CO)c(CO)c1O` [vitamin B6, pyridoxine]: in series [6], the “effect on depression in clinical trials” value is given as “helps alleviate depression associated with premenstrual syndrome”. The “dose reported to induce peripheral neuropathy” value in series [1] (in vivo) is “exceed 2,000 mg/day”.
In the case of `O=C([O-])[O-].[Li+].[Li+]` [lithium carbonate], the “relief of symptoms (anxiety, obsessive compulsive behavior, psychosis)” value in [7] is “Obsessive-compulsive behavior progressively deteriorated”.
Consider `[Li]` [lithium], for which the “side effects induced by medication” value in [7] (prior medications) was “induce tremors, rigidity, weight gain and diabetes”.
Turning to `O=C(O)c1cccnc1` [Niacin], the “effects at pharmacologic doses” value in series [1] (2-4 g/day) is “vasodilation (flushing reaction), a marked decrease in circulation fatty acids, cholesterol and lipoproteins, and an elevation of serum glucose and uric acid”. Besides, the “dose without reported toxicity” value in series [1] (in vivo) is reported as “up to 50 mg/day”.
